Test results: US12673022B2, “Drug delivery system using solution” (Kyoto University, priority 2018, dated 2026)

Columns and labels:
[1] = system: C57BL/6J mouse right lower limb gastrocnemius; assay: DNA mutation introduction efficiency using mRosa26 gRNA (T7E1 assay) after local administration; type: in vivo; conditions: Example 6; administration solution 2: 25 mM or 250 mM 2′-deoxycytidine, 6-phospho-D-gluconic acid, N-carbamyl-L-aspartic acid or 2-deoxy-D-glucose-6-phosphate, 533 mM sodium chloride; 50 μL once; Dunnett's test; FIG. 10
Protocol: Cas9 protein (20 μg), mRosa26 gRNA (5 μg), 10×PBS (5 μL) and a 2.0 M aqueous 2′-deoxycytidine solution (6.25 μL) were mixed so as to obtain an aqueous solution having final concentrations of 400 ng/μL Cas9 protein, 100 ng/μL mRosa26 gRNA, 533 mM sodium chloride and 250 mM 2′-deoxycytidine. The concentration of the resultant solution was adjusted to be 533 mM with a 5 M aqueous sodium chloride solution, diluted with UltraPure DNase/RNase-Free Distilled Water up to a liquid volume of 50 μL and incubated at normal temperature for 15 minutes. […] The Cas9 protein herein was subjected to buffer replacement with 250 mM sodium chloride by use of Amicon® Ultra 2 mL Centrifugal Filters and then put in use.
Cas9 protein (40 μg), mRosa26 gRNA (10 μg), 10×PBS (5 μL), and a […] compound stock solution (25 μL) were mixed so as to obtain final concentrations: 800 ng/μL Cas9 protein, 200 ng/μL mRosa26 gRNA, 533 mM sodium chloride and 250 mM compound. […]
To the right lower limb gastrocnemius of each of 9 weeks-old male C57BL/6J mice (CLEA Japan, Inc), administration solution 1 or administration solution 2 and PBS (50 μL) were administered. […] The resultant PCR product was purified by QIAquick PCR purification kit (QIAGEN), treated with T7 Endonuclease I (NEB) and analyzed by Agilent 4200 TapeStation (Agilent). […]
As shown in FIG. 10 and FIG. 11, to find statistical significant difference between GABA and each conditions of the compounds, Dunnett's multiple comparison test using DNA mutation introduction efficiency, Indel (%), and exon skipping efficiency, was carried out. It was determined that if P value is less than 0.05, these is a statistically significant difference. […]
A solution for transduction containing 2′-deoxycytidine as a compound (A3) and sodium chloride as the (B) salt was prepared. […] Administration solution 1 was locally administered to the mouse right lower limb gastrocnemius and the activity to cleave a target gene was evaluated. […]

[2] = system: EGFP reporter cells (C2C12 cells); assay: Number of HOECHST cells detected (cell viability) in the EGFP-SSA assay; conditions: Example 1; compound 250.0 mM vs 250 mM GABA positive control on the same plate; formula (2)
Protocol: To each of the solutions, a complex of gRNA and Cas9 protein was further dissolved. Mouse myoblasts (C2C12 cells) were contacted with each of the solutions in vitro, and target gene cleavage activity and cell viability were evaluated.

**Q.** With NC(=O)N[C@@H](CC(=O)O)C(=O)O [N-Carbamyl-L-aspartic acid] as the molecule, how does the “Genome editing efficiency (indel (%)) compared to 250 mM GABA” value [1] read?
**A.** statistically significant results compared to GABA

**Q.** And the “Relative ratio to GABA: Number of HOECHST cells” value [2]?
**A.** 1.19
